Laboratory results published in patent US12220419B2, “BCL-2 inhibitors” (Newave Pharmaceutical Inc., priority 2018, dated 2025).
Blank lines part the entries; values can stand above or below the compound they belong to.

Key:
Mcl-1 = Mcl-1 (Homo sapiens (Human), UniProt Q07820); settings: cited from earlier work
RS4;11 cells = settings: cited from earlier work
RS4; 11 xenografts = settings: single dose of 100 mg/kg; cited from earlier work
CLL = settings: average, read-out: average EC50, apoptosis in CLL; cited from earlier work
H345 xenograft = settings: 100 mg/kg/day, H345 xenograft model; cited from earlier work
Bcl-w = Bcl-w (Homo sapiens (Human), UniProt Q92843); settings: cited from earlier work
Chain of Bcl-w (Q92843 whole entry): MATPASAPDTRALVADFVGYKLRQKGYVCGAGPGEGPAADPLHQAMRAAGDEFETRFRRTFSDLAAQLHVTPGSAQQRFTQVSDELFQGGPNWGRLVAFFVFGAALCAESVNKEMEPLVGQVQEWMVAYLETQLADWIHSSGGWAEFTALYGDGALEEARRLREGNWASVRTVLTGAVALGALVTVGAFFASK

circulating platelets = settings: clinical trial, single agent; cited from earlier work
[1] = test system: small-cell lung cancer xenograft; settings: oral administration, alone; cited from earlier work
[2] = test system: acute lymphoblastic leukemia xenograft; settings: oral administration, alone; cited from earlier work
SCLC H146 cell line = settings: read-out: IC50 against SCLC H146 cell line; cited from earlier work
[3] = in vivo; cited from earlier work
[4] = cited from earlier work
BCL-2 = BCL-2 (Homo sapiens (Human), UniProt P10415); experiment: BCL-2 competition binding (fluorescence polarization) assay; settings: fluorescein-labeled BH3 peptide 15 nM, purified BCL-2 protein 30 nM, 3 hours incubation at room temperature; read-out: BCL2 IC50
Chain of BCL-2 (P10415 whole entry): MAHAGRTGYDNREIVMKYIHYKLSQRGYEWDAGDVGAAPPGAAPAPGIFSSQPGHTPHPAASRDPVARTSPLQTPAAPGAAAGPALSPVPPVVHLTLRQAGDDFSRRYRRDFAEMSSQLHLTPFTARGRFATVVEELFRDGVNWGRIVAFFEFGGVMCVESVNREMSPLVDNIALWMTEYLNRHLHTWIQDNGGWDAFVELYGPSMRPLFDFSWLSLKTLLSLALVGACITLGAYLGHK
Experimental: Biological Example 1: BCL-2 Competition Binding (Fluorescence Polarization) Assay
The fluorescence-labeled 23 amino acid peptide BH3 was purchased from CalBiochem ([…]). […] This binding assay was performed in 96-well plate and with each assay contained 15 and 30 nM of labeled peptide and purified BCL-2 protein (purchased from R&D Systems, Inc). The assay buffer contained 20 mM Hepes (pH 7.0), 50 mM KCl, 5 mM MgCl2, 20 mM Na2MoO4, 0.1 mg/ml Bovine Gamma Globulin and 0.01% NP40. Compounds were diluted in DMSO and added to the final assay with concentration range from 20 μM to 2 nM. The polarization degree (mP) value was determined by BioTek Synergy II with background subtraction after 3 hours of incubation at room temperature. IC50 was calculated using Prism software with sigmoidal dose-response curve fitting. ABT-737 was used as reference compound. Such assays, carried out with a range of doses of test compounds, allowed the determination of an approximate IC50 value.

[5] = test system: BCL-2-dependent acute lymphoblastic leukemia (ALL) cell line RS4;11; experiment: In vitro anti-proliferation assay (ATPlite luminescence) in RS4;11; assay type: cell-based; settings: RS4;11 cells, about 72 hours, medium with 5% FBS or 10% normal human serum
Experimental: Cell antiproliferation was assayed by PerkinElmer ATPlite™ Luminescence Assay System. Briefly, the various test cancer cell lines were plated at a density of about 1×10^4 cells per well in Costar 96-well plates, and were incubated with different concentrations of compounds for about 72 hours in medium supplemented with 5% FBS or 10% normal human serum (NHS). One lyophilized substrate solution vial was then reconstituted by adding 5 mL of substrate buffer solution, and was agitated gently until the solution was homogeneous. About 50 μL of mammalian cell lysis solution was added to 100 μL of cell suspension per well of a microplate, and the plate was shaken for about five minutes in an orbital shaker at 700 rpm. This procedure was used to lyse the cells and to stabilize the ATP. Next, 50 μL substrate solution was added to the wells and microplate was shaken for five minutes in an orbital shaker at 700 rpm. Finally, the luminescence was measured by a PerkinElmer TopCount® Microplate Scintillation Counter. Such assays, carried out with a range of doses of test compounds, allowed the determination of the cellular anti-antiproliferative IC50 of the compounds of the present invention.

Chain of Mcl-1 (Q07820 whole entry): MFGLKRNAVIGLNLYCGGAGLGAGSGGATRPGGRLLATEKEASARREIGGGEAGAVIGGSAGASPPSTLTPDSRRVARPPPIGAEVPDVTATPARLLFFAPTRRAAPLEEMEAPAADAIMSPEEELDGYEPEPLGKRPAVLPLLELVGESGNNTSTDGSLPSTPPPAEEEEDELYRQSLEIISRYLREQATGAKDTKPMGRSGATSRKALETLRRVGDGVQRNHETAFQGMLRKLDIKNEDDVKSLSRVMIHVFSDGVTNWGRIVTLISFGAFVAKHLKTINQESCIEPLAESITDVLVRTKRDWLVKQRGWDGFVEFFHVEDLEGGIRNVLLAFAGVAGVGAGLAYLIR

Compound: CC1(C)CCC(CN2CCN(c3ccc(C(=O)NS(=O)(=O)c4ccc(NCC5CCOCC5)c([N+](=O)[O-])c4)c(Oc4cnc5[nH]ccc5c4)c3)CC2)=C(c2ccc(Cl)cc2)C1 [ABT-199]
activity to Mcl-1 (Mcl-1): no activity
EC50 (RS4;11 cells): 8 nM
maximal tumor growth inhibition (RS4; 11 xenografts): 95%
tumor growth delay (RS4; 11 xenografts): 152%
EC50 (CLL): 3 nM

Compound: CC1(C)CCC(c2ccc(Cl)cc2)=C(CN2CCN(c3ccc(C(=O)NS(=O)(=O)c4ccc(N[C@H](CCN5CCOCC5)CSc5ccccc5)c(S(=O)(=O)C(F)(F)F)c4)cc3)CC2)C1 [ABT-263]
TGI (H345 xenograft): 80%
treated tumors indicating at least a 50% reduction in tumor volume (H345 xenograft): 20%
Ki (Bcl-w): ≤ 1 nM
number of circulating platelets (circulating platelets): rapid, concentration-dependent decrease
tumor response, small-cell lung cancer xenograft models [1]: complete tumor regressions
tumor response, acute lymphoblastic leukemia xenograft models [2]: complete tumor regressions
IC50 (SCLC H146 cell line): 110 nM

Compound: CN(C)CC[C@H](CSc1ccccc1)Nc1ccc(S(=O)(=O)NC(=O)c2ccc(N3CCN(Cc4ccccc4-c4ccc(Cl)cc4)CC3)cc2)cc1[N+](=O)[O-] [ABT-737]
oral bioavailability [3]: not orally bioavailable
aqueous solubility [4]: low aqueous solubility

Compound: CC1(C)CCC(c2ccc(Cl)cc2)=C(CN2CCN(c3ccc(C(=O)NS(=O)(=O)c4ccc(NC[C@H]5COCCO5)c([N+](=O)[O-])c4)c(N4CCCOc5nc6[nH]ccc6cc54)c3)CC2)C1 [Example 73, 4-(4-[[2-(4-chlorophenyl)-5,5-dimethylcyclohex-1-en-1-yl]methyl]piperazin-1-yl)-N-(4-[[(2S)-1,4-dioxan-2-ylmethyl]amino]-3-nitrobenzenesulfonyl)-2-[14-oxa-2,4,10-triazatricyclo[7.5.0.0^[3,7]]tetradeca-1(9),2,5,7-tetraen-10-yl]benzamide]
IC50 (BCL-2): 0.9 nM
IC50 [5]: 3.1 nM

Compound: O=C(NS(=O)(=O)c1ccc(NC[C@H]2COCCO2)c([N+](=O)[O-])c1)c1ccc(N2CCN(CC3=C(c4ccc(Cl)cc4)CCCC3)CC2)cc1N1CCCOc2nc3[nH]ccc3cc21 [Example 74, 4-(4-[[2-(4-chlorophenyl)cyclohex-1-en-1-yl]methyl]piperazin-1-yl)-N-(4-[[(2S)-1,4-dioxan-2-ylmethyl]amino]-3-nitrobenzenesulfonyl)-2-[14-oxa-2,4,10-triazatricyclo[7.5.0.0^[3,7]]tetradeca-1(9),2,5,7-tetraen-10-yl]benzamide]
IC50 (BCL-2): 0.3 nM
IC50 [5]: 1.7 nM

Compound: O=C(NS(=O)(=O)c1ccc(NC[C@H]2COCCO2)c([N+](=O)[O-])c1)c1ccc(N2CCN(CC3=C(c4ccc(Cl)cc4)CCCCC3)CC2)cc1N1CCCOc2nc3[nH]ccc3cc21 [Example 75, 4-(4-[[2-(4-chlorophenyl)cyclohept-1-en-1-yl]methyl]piperazin-1-yl)-N-(4-[[(2S)-1,4-dioxan-2-ylmethyl]amino]-3-nitrobenzenesulfonyl)-2-[14-oxa-2,4,10-triazatricyclo[7.5.0.0^[3,7]]tetradeca-1(9),2,5,7-tetraen-10-yl]benzamide]
IC50 (BCL-2): 0.6 nM
IC50 [5]: 2.7 nM

IC50 (BCL-2): 0.08 nM
Compound: COC1(C)CCC(c2ccc(Cl)cc2)=C(CN2CCN(c3ccc(C(=O)NS(=O)(=O)c4ccc(NC[C@H]5COCCO5)c([N+](=O)[O-])c4)c(N4CCCOc5nc6[nH]ccc6cc54)c3)CC2)C1 (stereo partly drawn) [Example 77, 4-(4-[[2-(4-chlorophenyl)-5-methoxy-5-methylcyclohex-1-en-1-yl]methyl]piperazin-1-yl)-N-(4-[[(2S)-1,4-dioxan-2-ylmethyl]amino]-3-nitrobenzenesulfonyl)-2-[14-oxa-2,4,10-triazatricyclo[7.5.0.0[3,7]]tetradeca-1(9),2,5,7-tetraen-10-yl]benzamide]
IC50 [5]: 0.8 nM
